ChEMBL document CHEMBL1128088, “Synthesis and activity of cereulide, a cyclic dodecadepsipeptide ionophore as emetic toxin from Bacillus cereus” (1995)

Legend:
HEp-2 = experiment: Effect on vacuole response in the HEp-2 cells; type: functional, Homo sapiens
Suncus murinus [1] = experiment: Effect on number of vomiting episodes at dose 32 ug/Kg administered po; type: functional
Suncus murinus [2] = experiment: Effect on number of suncus vomited at dose 16 ug/Kg administered po (out of 5); type: functional
Suncus murinus [3] = experiment: Effect on latency at dose 16 ug/Kg administered ip; type: functional
Suncus murinus [4] = experiment: Effect on number of suncus vomited at dose 8 ug/Kg administered po (out of 5); type: functional
Suncus murinus [5] = experiment: Effect on latency at dose 16 ug/Kg administered po; type: functional
Suncus murinus [6] = experiment: Effect on number of suncus vomited at dose 8 ug/Kg administered ip; type: functional
Suncus murinus [7] = experiment: Effect on latency at dose 32 ug/Kg administered po; type: functional
Suncus murinus [8] = experiment: Effect on number of suncus vomited at dose 32 ug/Kg administered po (out of 5); type: functional
Suncus murinus [9] = experiment: Effect on number of vomiting episodes at dose 16 ug/Kg administered po; type: functional
Suncus murinus [10] = experiment: Effect on number of suncus vomited at dose 16 ug/Kg administered ip (out of 5); type: functional
Suncus murinus [11] = experiment: Effect on number of vomiting episodes at dose 16 ug/Kg administered ip; type: functional
Suncus murinus [12] = experiment: Effect on number of suncus vomited at dose 4 ug/Kg administered ip (out of 5); type: functional
Suncus murinus [13] = experiment: Effect on number of vomiting episodes at dose 8 ug/Kg administered ip; type: functional
Suncus murinus [14] = experiment: Effect on latency at dose 8 ug/Kg administered ip; type: functional
Suncus murinus [15] = experiment: Effect on latency at dose 8 ug/Kg administered po; type: functional
Suncus murinus [16] = experiment: Effect on latency at dose 32 ug/Kg administered ip; type: functional
Suncus murinus [17] = experiment: Effect on number of vomiting episodes at dose 32 ug/Kg administered ip; type: functional
Suncus murinus [18] = experiment: Effect on number of vomiting episodes at dose 8 ug/Kg administered po; type: functional
Suncus murinus [19] = experiment: Effect on number of suncus vomited at dose 2 ug/Kg administered ip (out of 3); type: functional
Suncus murinus [20] = experiment: Effect on number of suncus vomited at dose 32 ug/Kg administered ip (out of 5); type: functional
Suncus murinus [21] = experiment: Effect on number of suncus vomited at dose 8 ug/Kg administered ip (out of 5); type: functional
Suncus murinus [22] = experiment: Effect on number of suncus vomited at dose 4 ug/Kg administered po (out of 5); type: functional
Suncus murinus [23] = experiment: Effect on latency at dose 4 ug/Kg administered ip; type: functional
Suncus murinus [24] = experiment: Effect on number of vomiting episodes at dose 4 ug/Kg administered ip; type: functional

SMILES	Vacuole response (HEp-2) [ng/mL]	No. of vomiting episodes (Suncus murinus [1])	Latency (Suncus murinus [3]) [min]	No. of suncus vomited (Suncus murinus [4])	Latency (Suncus murinus [5]) [min]	Latency (Suncus murinus [7]) [min]	No. of vomiting episodes (Suncus murinus [9])	No. of suncus vomited (Suncus murinus [10])	No. of vomiting episodes (Suncus murinus [11])	No. of suncus vomited (Suncus murinus [12])	No. of vomiting episodes (Suncus murinus [13])	Latency (Suncus murinus [14]) [min]	other results
CC(C)C[C@@H](OC(=O)[C@@H](NC(=O)[C@@H](O)C(C)C)C(C)C)C(=O)N[C@H](C)C(=O)O[C@H](C(=O)N[C@H](C(=O)O[C@H](CC(C)C)C(=O)N[C@H](C)C(=O)O[C@H](C(=O)N[C@H](C(=O)O[C@H](CC(C)C)C(=O)N[C@H](C)C(=O)O)C(C)C)C(C)C)C(C)C)C(C)C	12000	–	–	–	–	–	–	–	–	–	–	–	–
CC(C)C[C@@H]1OC(=O)[C@H](C(C)C)NC(=O)[C@@H](C(C)C)OC(=O)[C@@H](C)NC(=O)[C@H](CC(C)C)OC(=O)[C@H](C(C)C)NC(=O)[C@@H](C(C)C)OC(=O)[C@@H](C)NC(=O)[C@H](CC(C)C)OC(=O)[C@H](C(C)C)NC(=O)[C@@H](C(C)C)OC(=O)[C@@H](C)NC1=O (stereo in doubt; form 2)	3	7.6	6	0	8.3	8.2	6.3	5	10.3	0	5	7	No. of suncus vomited (Suncus murinus [2]): 3; No. of suncus vomited (Suncus murinus [6]): 1; No. of suncus vomited (Suncus murinus [8]): 5; Latency (Suncus murinus [15]): 6 min
CC(=O)OC[C@@H](C)NC(=O)[C@@H](CC(C)C)OC(=O)[C@@H](NC(=O)[C@@H](OC(=O)[C@@H](C)NC(=O)[C@@H](CC(C)C)OC(=O)[C@@H](NC(=O)[C@@H](OC(=O)[C@@H](C)NC(=O)[C@@H](CC(C)C)OC(=O)[C@@H](NC(=O)[C@@H](OC(C)=O)C(C)C)C(C)C)C(C)C)C(C)C)C(C)C)C(C)C	>20000	–	–	–	–	–	–	–	–	–	–	–	–
CC(C)C[C@@H]1OC(=O)[C@H](C(C)C)NC(=O)[C@@H](C(C)C)OC(=O)[C@@H](C)NC(=O)[C@H](CC(C)C)OC(=O)[C@H](C(C)C)NC(=O)[C@@H](C(C)C)OC(=O)[C@@H](C)NC(=O)[C@H](CC(C)C)OC(=O)[C@H](C(C)C)NC(=O)[C@@H](C(C)C)OC(=O)[C@@H](C)NC1=O (stereo in doubt; form 1)	5	7	5.3	1	6.3	4.4	5.3	3	7.3	1	6.8	5.7	Latency (Suncus murinus [16]): 5.9 min; No. of vomiting episodes (Suncus murinus [17]): 8.4; No. of vomiting episodes (Suncus murinus [18]): 3; No. of suncus vomited (Suncus murinus [19]): 0; No. of suncus vomited (Suncus murinus [20]): 5; No. of suncus vomited (Suncus murinus [21]): 2; No. of suncus vomited (Suncus murinus [22]): 0; Latency (Suncus murinus [23]): 15 min; No. of vomiting episodes (Suncus murinus [24]): 4
